Laboratory results: paper PMC8587849, “Antimicrobial and Anticancer Application of Silver(I) Dipeptide Complexes” (Molecules, 2021)
Values joined by “and” are separate entries in the source; they are usually repeats but may differ in a detail not shown here. Equal values may be shown once. Read-outs that look alike come from different tables or passages of the source. Where a SMILES comes first, the peptide text is derived from it.

Assays:
HeLa = test: MTS antiproliferative assay; format: cell-based, human; conditions: 72 h
Description: (§1) After 72 h of incubation, 10 µL of MTS was added to each well. […] IC50 values were calculated from MTS analyses.

MCF-7 = test: MTS antiproliferative assay; format: cell-based, human; conditions: 72 h
Description: as §1

Candida albicans SC 5314 = test: Antifungal activity (yeast), macrodilution method; format: cell-based; conditions: C. albicans
Description: (§4) Cultures of bacteria (in Mueller-Hinton broth, MHB) and yeasts (in Sabouraud’s growth medium, SB) were incubated under shaking (250 rpm) at 37 °C. The growth of bacteria and yeasts was evaluated by measuring the absorbance of the growing cultures (A550) until the cultures reached the stationary growth phase. […] During culturing, the diameters of growing fungal colonies were measured at regular intervals [71, 72]. […] The final concentration of DMSO never exceeded 1.0 vol. % in the control or treated samples. […] The IC50 and MIC90 with respect to MIC80 values were evaluated from toxicity curves.

A.flavus = test: Antifungal activity (filamentous fungi); format: cell-based; conditions: read-out: IC50 and MIC100 (class symbol)
Description: as §4

[1] = tested on: Staphylococcus epidermidis CCM 7221; test: Antibacterial activity, macrodilution method; format: cell-based; conditions: S.epidermidis; for IC50 and MIC90 (class symbol): free ligands
Description: (§5) Cultures of bacteria (in Mueller-Hinton broth, MHB) and yeasts (in Sabouraud’s growth medium, SB) were incubated under shaking (250 rpm) at 37 °C. The growth of bacteria and yeasts was evaluated by measuring the absorbance of the growing cultures (A550) until the cultures reached the stationary growth phase. […] The final concentration of DMSO never exceeded 1.0 vol. % in the control or treated samples. […] The IC50 and MIC90 with respect to MIC80 values were evaluated from toxicity curves.

[2] = tested on: Rhizopus oryzae CCM F-8284; test: Antifungal activity (filamentous fungi), macrodilution on solidified PDA; format: cell-based
Description: as §4

[3] = tested on: Microsporum gypseum CCM F-8342; test: as above; format: cell-based; conditions: M.gypseum
Description: as §4

[4] = tested on: Staphylococcus aureus CCM 3953; test: Antibacterial activity, macrodilution method; format: cell-based; conditions: S. aureus; for IC50 and MIC90 (class symbol): free ligands
Description: as §5

[5] = tested on: Escherichia coli (E. coli) CCM 3988; test: Antibacterial activity, macrodilution method; format: cell-based; conditions: for IC50 and MIC90 (class symbol): free ligands
Description: as §5

BJ-5ta = test: MTS assay on fibroblasts; format: cell-based; conditions: BJ-5ta human skin fibroblasts, 72 h
Description: as §1

[6] = tested on: Alternaria alternata CCM F-128; test: Antifungal activity (filamentous fungi), macrodilution on solidified PDA; format: cell-based; conditions: A. alternata
Description: as §4

[7] = tested on: Candida parapsilosis ATCC 22019; test: Antifungal activity (yeast), macrodilution method; format: cell-based; conditions: C. parapsilosis
Description: as §5

BLM = test: MTS antiproliferative assay; format: cell-based, human; conditions: for IC50: BLM, MTS, 72 h
Description: (§2) Cells were maintained in standard conditions with an atmosphere containing 5% CO2 at 37 °C.
as §1

HCT116 = test: MTS antiproliferative assay; format: cell-based, human; conditions: 72 h
Description: as §2, §1

MDA-MB-231 = test: MTS antiproliferative assay; format: cell-based, human; conditions: 72 h
Description: as §2, §1

Jurkat = test: MTS antiproliferative assay; format: cell-based, human; conditions: 72 h
Description: as §2, §1

[8] = tested on: methicillin-resistant Staphylococcus aureus L12; test: Antibacterial activity, macrodilution method; format: cell-based; conditions: for IC50 and MIC90 (class symbol): S. aureus L12, free ligands
Description: as §5

CT DNA = test: UV-Vis absorption titration with CT DNA; format: binding, calf; conditions: 0.01 M Tris-HCl pH 7.4; complex 7.85 × 10^−5 M
Description: UV–vis spectra were measured in 0.01 M Tris-HCl buffer (pH 7.4) using a Varian Cary 100 Bio spectrophotometer in the range of 230–320 nm and recorded at room temperature (24 °C) using a quartz cuvette of 1 cm path length. The concentration of investigated Ag(I) complexes was 7.85 × 10^−5 M. During the titration, an aliquot of buffered CT DNA solution was added to each cuvette (sample and reference) to eliminate the absorbance of DNA itself. The DNA concentration per nucleotide was determined by absorption spectroscopy using the molar absorption coefficient (6600 M^−1cm^−1) at 260 nm.

HCT116 cells = test: Cell cycle analysis by flow cytometry; format: cell-based, human; conditions: treated with IC50
Description: (§3) Prior to each analysis, cells were washed in PBS, followed by resuspending in staining solution (0.5 mg/mL ribonuclease A, 0.2% final concentration Triton X-100, propidium iodide 0.025 mg/mL in 500 µL PBS) (all Sigma Aldrich), and incubated for 30 min at room temperature in the dark. For analysis of stained cells, a BD FACSCalibur flow cytometer (BD Bio-sciences) was used. A minimum of 1 × 10^4 events were analysed per analysis.

MDA-MB-231 cells = test: Cell cycle analysis by flow cytometry; format: cell-based, human; conditions: treated with IC50
Description: as §3

Jurkat cells = test: Cell cycle analysis by flow cytometry; format: cell-based, human; conditions: treated with IC50
Description: as §3

BLM cells = test: Cell cycle analysis by flow cytometry; format: cell-based, human; conditions: treated with IC50
Description: as §3

S. aureus biofilm = test: Influence on S. aureus biofilm formation, crystal violet staining; format: cell-based; conditions: for A570 (biofilm, crystal violet): control A570 = 0.47; for I: biofilm intensity: control strong
Description: The biofilm was qualified by the crystal violet staining method. Briefly, overnight cultures of bacteria S.aureus (in MHB) and yeasts C.parapsislosis (in SB) were prepared. The fresh prepared growth media MHB and SB were inoculated with the overnight culture for a final concentration of 5 × 10^6 cells mL^−1. The microbial biofilm was formed in 96-well microplates for adherent cells. […] Prepared cultures were incubated for 2 h at 37 °C. […] The treatment with DMSO (solvent) alone served as a control. The inoculated microplates were incubated at 37 °C for the next 46 h. […] Microplates with mature biofilm were decanted and washed using 200 μL of saline solution. The plate was left for 15 min to dry completely at laboratory temperature. Then, 110 μL of 0.4% crystal violet dye was added to each well, and the plate was incubated for 15 min at laboratory temperature. After the decantation, the plate was washed 3 times with 200 μL of saline solution. Then, 200 μL of 96% ethanol was added. The microplate was left to incubate for 15 min at laboratory temperature. After the transfer of the well content to a clean microplate, the absorbance (570 nm) of released crystal violet (proportionate to biofilm cell density) was measured,, and the values were evaluated as weak biofilm formation A570 <0.1; 0.199>, medium biofilm formation A570 <0.2; 0.3>, strong biofilm formation A570 <0.301; 0.999>, or very strong biofilm formation A570 ≥ 1.00.

CT DNA–HO system = test: Fluorescence competitive binding with Hoechst 33258; parameters: species or system calf; conditions: displacement of Hoechst 33258 from CT DNA; 462 nm; 10 mM Tris-HCl pH 7.4
Description: The fluorescence competitive binding studies of silver(I) complexes with Hoechst 33 258 (HO) were performed on a Varian Cary Eclipse spectrophotometer. The emission spectra of DNA–HO were measured in the range of 400–550 nm using an excitation wavelength of 343 nm with a slit width of 5 nm for the excitation and 5 nm for the emission beam. […] Ksv quenching constant was determined according to the classical Stern-Volmer Equation (1) in [63, 75]:F0/F = 1 + KSV [Q](1) where F0 and F are the fluorescence intensities in the absence and the presence of the quencher at 462 nm, KSV is the Stern-Volmer quenching constant and [Q] is the concentration of the quencher.

[9] = read-out: IC50 and MIC100 (class symbol)

C[C@H](NC(=O)CN)C(=O)O [HGlyAla, Glycyl-L-Alanine, reference compound] (H-Gly-Ala-OH)
IC50 (HeLa): > 300 µM
IC50 (MCF-7): > 300 µM
IC50 and MIC80 (class symbol) (Candida albicans SC 5314): N (N- not active IC50 and MIC values > 2 mmol.l-1)
IC50 (A.flavus): > 2000 µM
IC50 and MIC90 (class symbol) [1]: N (N- not active IC50 and MIC90 values > 2 mmol.l-1)
IC50 [2, 9]: > 2000 µM
IC50 [3, 9]: > 2000 µM
IC50 and MIC90 (class symbol) [4]: N (N- not active IC50 and MIC90 values > 2 mmol.l-1)
IC50 and MIC90 (class symbol) [5]: N (N- not active IC50 and MIC90 values > 2 mmol.l-1)
IC50 (BJ-5ta): > 300 µM
IC50 [6, 9]: > 2000 µM
IC50 and MIC80 (class symbol) [7]: N (N- not active IC50 and MIC values > 2 mmol.l-1)
IC50 (BLM): > 300 µM
IC50 (HCT116): > 300 µM
IC50 (MDA-MB-231): > 300 µM
IC50 (Jurkat): > 300 µM
IC50 and MIC90 (class symbol) [8]: N (N- not active IC50 and MIC90 values > 2 mmol.l-1)

NCC(=O)NCC(=O)O [HGlyGly, Glycyl-L-Glycine, reference compound] (H-Gly-Gly-OH)
IC50 and MIC80 (class symbol) (Candida albicans SC 5314): N (N- not active IC50 and MIC values > 2 mmol.l-1)
IC50 (A.flavus): > 2000 µM
IC50 and MIC90 (class symbol) [1]: N (N- not active IC50 and MIC90 values > 2 mmol.l-1)
IC50 [2, 9]: > 2000 µM
IC50 [3, 9]: > 2000 µM
IC50 and MIC90 (class symbol) [4]: N (N- not active IC50 and MIC90 values > 2 mmol.l-1)
IC50 and MIC90 (class symbol) [5]: N (N- not active IC50 and MIC90 values > 2 mmol.l-1)
IC50 [6, 9]: > 2000 µM
IC50 and MIC80 (class symbol) [7]: N (N- not active IC50 and MIC values > 2 mmol.l-1)
IC50 and MIC90 (class symbol) [8]: N (N- not active IC50 and MIC90 values > 2 mmol.l-1)

N.N.[Cl][Pt][Cl] [cisPt, cisplatin]
IC50 (HeLa): 35.4 µM
IC50 (MCF-7): 29.7 µM
IC50 (BJ-5ta): 37.9 µM
IC50 (BLM): 29.5 µM
IC50 (HCT116): 7.4 µM
IC50 (MDA-MB-231): 7.1 µM
IC50 (Jurkat): 6.3 µM

[Ag2(GlyAla)(NO3)2]n [AgGlyAla]
IC50 (HeLa): 33.2 µM
IC50 (MCF-7): 7.5 µM
IC50 (Candida albicans SC 5314): 50 µM
MIC80 (Candida albicans SC 5314): 87 µM
IC50 (A.flavus): > 100 µM
IC50 [1]: 8 µM
MIC90 [1]: 10 µM
IC50 ([2]; read-out: IC50): 30 µM
MIC100 ([2]; suffix s = fungistatic): 50 µM
Hypochromism (CT DNA): 40.7%
Δλmax (red shift on addition of CT DNA) (CT DNA): 9 nm
IC50 ([3]; read-out: IC50): 75 µM
MIC100 ([3]; suffix s = fungistatic): 100 µM
IC50 [4]: 7 µM
MIC90 [4]: 11 µM
IC50 [5]: 6 µM
MIC90 [5]: 9 µM
IC50 (BJ-5ta): 40.2 µM
IC50 ([6]; read-out: IC50): 42 µM
MIC100 ([6]; suffix s = fungistatic): > 100 µM
cells in G2/M (HCT116 cells; 48 h): 14.0 ± 0.4%
cells in S (HCT116 cells; 48 h): 7.0 ± 0.3%
cells in G2/M (HCT116 cells; 72 h): 7.6 ± 1.7%
cells in S (HCT116 cells; 72 h): 8.1 ± 1.2%
cells in G2/M (MDA-MB-231 cells; 24 h): 22.8 ± 2.5% and 22.8%
cells in S (MDA-MB-231 cells; 24 h): 11.2 ± 2.0%
cells in G2/M (MDA-MB-231 cells; 48 h): 19.4 ± 0.1%
cells in S (MDA-MB-231 cells; 48 h): 11.1 ± 0.7%
cells in G2/M (Jurkat cells; 48 h): 17.9 ± 1.8%
cells in S (Jurkat cells; 48 h): 12.6 ± 0.5%
cells in G2/M (Jurkat cells; 72 h): 10.3 ± 3.1%
cells in S (Jurkat cells; 72 h): 12.1 ± 1.8%
cells in G2/M (BLM cells; 48 h): 28.9 ± 2.7%
cells in S (BLM cells; 48 h): 19.5 ± 0.1%
cells in G2/M (BLM cells; 72 h): 27.3 ± 1.3%
cells in S (BLM cells; 72 h): 18.8 ± 0.4%
A570 (biofilm, crystal violet) (S. aureus biofilm; complex concentration 5 µM): 0.51
I: biofilm intensity (S. aureus biofilm; complex concentration 5 µM): strong (strong biofilm formation A570 <0.301; 0.999>)
A570 (biofilm, crystal violet) (S. aureus biofilm; complex concentration 10 µM): 0.41
I: biofilm intensity (S. aureus biofilm; complex concentration 10 µM): strong (strong biofilm formation A570 <0.301; 0.999>)
A570 (biofilm, crystal violet) (S. aureus biofilm; complex concentration 25 µM): 0.25
A570 (biofilm, crystal violet) (S. aureus biofilm; complex concentration 50 µM): 0.23
A570 (biofilm, crystal violet) (S. aureus biofilm; complex concentration 100 µM): 0.25
I: biofilm intensity (S. aureus biofilm; complex concentration 100 µM): medium (medium biofilm formation A570 <0.2; 0.3>)
KSV (Stern-Volmer quenching constant) (CT DNA–HO system): 7.97 ± 0.03 × 10^4 M^−1
IC50 [7]: 30 µM
MIC80 [7]: 60 µM
IC50 (BLM): 10.9 µM
Selectivity index (SI) (BLM; ratio of IC50 values BJ-5ta/BLM): 3.7
IC50 (HCT116): 28 µM
IC50 (MDA-MB-231): 7.4 µM
IC50 (Jurkat): 9.7 µM
IC50 ([8]; S. aureus L12 (MRSA)): 9 µM
MIC90 ([8]; S. aureus L12 (MRSA)): 20 µM
